Assay results as given in EP0339444A1, “Elaiophylin derivatives, process for their preparation and use as medicaments” (HOECHST AKTIENGESELLSCHAFT, priority 1988, dated 1989).

System: Haemunchus contortus
Assay: Anthelmintic activity in lambs artificially infected with abomasal nematodes (coproscopy up to 14 days after application, then necropsy with helminthological work-up)
Type: in vivo
Details: Lämmer 30 bis 40 kg
Text: Die anthelminthische Wirkung der Elaiophylinderivate wurde an Lämmern mit 30 bis 40 kg Körpergewicht untersucht. Dazu wurden die Lämmer artifiziell mit Infektionsstadien von Labmagennematoden (Haemunchus contortus) infiziert. Nach Abschluß der Entwicklungszeit (Präpatenzperiode) der Nematoden erfolgte die Applikation der Elaiophylinderivate.
Durch koproskopische Untersuchungen vor und bis zu 14 Tagen nach der Applikation der Elaiophylinderivate und anschließender Sektion mit helminthologischer Aufarbeitung wurde die prozentuale Reduktion der Schaf-Nematoden ermittelt (s. Tabelle 7). Als Vergleichssubstanz diente Elaiophylin. Zusätzlich wurde auch noch die antibakterielle Aktivität der erfindungsgemäßen Elaiophylinderivate gegen Staph. aureus und Strept. pyogenes ermittelt. Überraschenderweise zeigen die erfindungsgemäßen Verbindung keine oder nur sehr geringe antibakterielle Aktivität. Gerade deshalb eignen sich die erfindungsgemäßen Verbindungen insbesondere für den Einsatz als Anthelminthika, da hier eine antibakterielle Wirkung unerwünscht ist.

Structure (SMILES)	Reduktion v. H. contortus (%) (Dosierung 5,0 mg/kg (oral))	Reduktion v. H. contortus (%) (Dosierung 2,5 mg/kg (s.c.))
CCC1C(C)OC(O)(C(C)C(O)C(C)C2OC(=O)C3=NNCC3/C=C/C(C)C(C(C)C(O)C(C)C3(O)CC(OC4CC(OC(C)=O)C(OC(C)=O)C(C)O4)C(CC)C(C)O3)OC(=O)C3=NNCC3/C=C/C2C)CC1OC1CC(OC(C)=O)C(OC(C)=O)C(C)O1 (stereo not shown) [Verbindung 2]	40-50%	–
CCC1C(C)OC(O)(C(C)C(O)C(C)C2OC(=O)C3=NNCC3/C=C/C(C)C(C(C)C(O)C(C)C3(O)CC(OC4CC(O)C(O)C(C)O4)C(CC)C(C)O3)OC(=O)C3=NNCC3/C=C/C2C)CC1OC1CC(O)C(O)C(C)O1 (stereo not shown) [Verbindung 1]	35-45%	–
CCOC(=O)C1NN=C2C(=O)OC(C(C)C(O)C(C)C3(O)CC(OC4CC(O)C(O)C(C)O4)C(CC)C(C)O3)C(C)/C=C/C3C(=NNC3C(=O)OCC)C(=O)OC(C(C)C(O)C(C)C3(O)CC(OC4CC(O)C(O)C(C)O4)C(CC)C(C)O3)C(C)/C=C/C21 (stereo not shown) [Verbindung 6]	50-60%	50-60%
